In one test the test system is Bifidobacteria. Briefly: Faecal fermentation in dialysis tubes, FISH with Bifl 64 probe. Type of test: cell-based. Conditions: t = 72 h versus t = 0. As for the experimental part: (§1) Pooled fresh faeces obtained from 4-5 healthy adults was used to perform fermentation studies as described in Appendix I of WO 2004/000340. The experiments were performed in duplo. The faeces, diluted 1:5 into McBain and Farlane medium, was put into dialysis tubes and suspended in bottles with buffer under anaerobic conditions and was first incubated at 37° C. for 16 h for reasons of adaptation before inoculating them with the substrates according to the table below at t=0.
(§2) The test substrates were added once a day (at t=0, 24, and 48 hours). Buffer was refreshed once a day. A sample was taken at t=0 and t=72. This relatively long period was used since shifts in bacterial populations are relatively slow compared to the shifts in short chain acids formed.
(§3) The sphingosine was dissolved in ethanol (stock 10 mg/ml). 30 μl of a stock of 10 mg/ml was added to the dialysis tube.
(§4) The samples were analysed by Fluorescence In Situ Hybridisation (FISH) as described in Franks, A. H., et al., Appl. Environ. Microbiol., 1998. 64(9): p. […] Total number of bacteria was determined by DAPI staining. The ratio Firmicutes/Bacteroidetes was set at the percentage of bacteria detected by the Chis150, Clit135, Erec482 and Lab158 probe, divided by the percentage of bacteria […] by the Bac303 probe. The bacteria detected by the Erec482 group are usually the largest group of Firmicutes in the human intestine.

The test system of test [1] is Eubacterium rectale and Clostridium coccoides group. Briefly: Faecal fermentation in dialysis tubes, FISH with Erec482 probe. Type of test: cell-based. The note with it: t = 72 h versus t = 0. As for the experimental part:
as §1, §2, §3, §4

For the compound `CCCCCCCCCCCCC/C=C/[C@@H](O)[C@@H](N)CO` [Number 1, D-sphingosine], in the test on Bifidobacteria, the “change in bifidobacteria (in words)” value was “increase”. In addition, the “change in Clostridia and Eubacteria, largest group of intestinal Firmicutes (in words)” value in test [1] is “decrease”.

The values are drawn from patent US20110034407A1, “USE OF SPHINGOMYELIN AND NON-DIGESTIBLE CARBOHYDRATES FOR IMPROVING INTESTINAL MICROBIOTA” (N. V. Nutricia, priority 2007, published 2011).
